Legend:
[1] = system: CMRF44Ab; test: ELISA binding of peptide phage clones to CMRF44Ab; conditions: 12-mer phage libraries, confirmed by FACS blocking of CMRF44Ab binding to cell surface
Method: (§1) Peptide mimics were isolated from a phage display library using a library purchased from New England Biolabs called the PhD-12 Phage Display Peptide Library Kit (Cat No. #E8110S). The PhD-12 Phage Display Peptide Library Kit is based on a combinatorial library of random peptide 12-mers fused to a minor coat protein (pIII) of M13 phage. […] The library consists of ˜2.7×10^9 electroporated sequences, amplified once to yield ˜55 copies of each sequence in 10 μl of the supplied phage. The library is usually panned 3-4 times on the subject of study (usually antibody, but can use receptors, ligands etc.) with increasing stringency of washing at each step followed by analysis of individual clones for a consensus sequence binding to the test subject.
(§2) The consensus sequence of any peptides isolated from the library were be determined according to methods known to a person skilled in the art. ELISAs were then used to determine the binding of individual peptide phage clones or synthetic peptides (with or without repeats of the consensus sequence) to the original target (FIG. 1). Competitive binding assays were also used and analysed by FACS to determine true binding of the peptide sequences to the binding site of the target compared with the “natural” ligand or epitope (FIG. 2). Sequence analysis of the consensus sequence can determine what type of ligand is binding to the target or could give a true epitope, which may be used for database searches to find possible full-length sequences.
A consensus peptide sequence was identified for peptides which bind to CMRF44Ab from the 12-mer libraries using ELISA. Subsequent FACS analysis of phage peptide blocking of binding of CMRF44Ab to the cell surface also confirmed the peptide sequence. The peptide sequence appeared to be constrained to the N-terminus and the best sequence was AQKYQ (SEQ ID NO: 2) with apparent strong conservation at 1st, 3rd and 5th residues. A family of sequences were also identified and included ALKYQ (SEQ ID NO: 4), ALKEQ (SEQ ID NO: 5) and APKQQ (SEQ ID NO: 3). Further repeat panning of PhD-7 library was carried out to confirm the peptide sequence and identify other possible CMRF44 peptide antigen mimic sequences. […] Also, 3 rounds of repeat panning was carried out on combined 7-mer and 12-mer libraries (pooled together) with acid elution. Several clones sequences as well as pool of 3 round eluate. Results for CMRF-44 show an enrichment of the clone: ALKYQTGMPQSM (SEQ ID NO: 6) in both individual clones and the main strongest sequence in the pooled 3rd round eluate (FIG. 4).

[2] = system: CMRF44Ab; test: Repeat panning of combined 7-mer and 12-mer phage peptide libraries on CMRF44Ab, sequencing of 3rd round clones and pooled eluate; type: binding; conditions: 3 rounds, combined 7-mer and 12-mer libraries, acid elution; individual clones and pooled 3rd round eluate (FIG. 4)
From the text: FIG. 4 is a graphical representation of sequence results of 3rd round combined 7 and 12-mer phage peptide library panning (CMRF44Ab).
as §1
A consensus peptide sequence was identified for peptides which bind to CMRF44Ab from the 12-mer libraries using ELISA. Subsequent FACS analysis of phage peptide blocking of binding of CMRF44Ab to the cell surface also confirmed the peptide sequence. The peptide sequence appeared to be constrained to the N-terminus and the best sequence was AQKYQ (SEQ ID NO: 2) with apparent strong conservation at 1st, 3rd and 5th residues. […]

[3] = system: CMRF44Ab; test: FACS competitive binding: peptide blocking of CMRF44Ab binding to natural antigen on KM-H2 cells; type: cell-based; conditions: 5-mer peptide alone, KM-H2 cells (FIG. 22)
From the text: (§3) FIG. 22 is a graphical representation of FACS data showing binding of CMRF44Ab and scFv binding to KM-H2 cells and blocking of binding to natural antigen by competition with peptide mimic.
as §2

[4] = system: CMRF44 scFv; test: FACS competitive binding: peptide blocking of CMRF44 scFv binding to natural antigen on KM-H2 cells; type: cell-based; conditions: 5-mer peptide alone, KM-H2 cells (FIG. 22)
From the text: as §3, §2

Row | Substance | consensus peptide sequence binding to CMRF44Ab [1] | enrichment of clone in panning [2] | blocking of CMRF44Ab [3] | blocking of the engineered CMRF44 scFv [4]
1 | ALKEQ | identified | – | – | –
2 | ALKYQ | identified | – | – | –
3 | ALKYQTGMPQSM [12-mer phage display peptide clone] | – | enrichment | – | –
4 | APKQQ | identified | – | – | –
5 | AQKYQ | best sequence | – | blocking | blocking

— patent US8895698B2, “Binding partners of antibodies specific for dendritic cell antigens” (The Corporation of the Trustees of the Order of the Sisters …, priority 2004, dated 2014)
